System: Hurley RI 000 tumor infiltrating lymphocytes (cytotoxic T cell specific for the G9-209 epitope encoded by the human melanoma associate protein gp100)
Experiment: sensitization of tumor infiltrating lymphocytes and interferon-γ release
Assay type: cell-based
Details: Hurley RI 000 TIL, G9-209 (gp100) specific
From the text: This invention provides novel, synthetic peptide sequences which are useful as components of melanoma vaccines and to expand immune effector cells that are specific for melanoma. […] These assay methods are known in the art and disclosed in Zugel, U. et al. (1998) J Immunol. 161:1705-1709) and Salgaller, M. L. et al. (1995) Infra. The peptide sequences of the present invention differ from the natural epitope (ITDQVPFSV) (Seq. ID No. 5) in two ways: (1) they contain mutation sin the putative HLA-A2 binding domain (amino acid residues 1, 2, and 9) conferring tighter binding to the MHC, and (2) they contain mutations in the putative T cell receptor-binding domain (amino acid residues 3-8) resulting in an apparent increased avidity for the T cell receptor. They also are novel over the synthetic peptides disclosed by Salgaller, et al. (1995) Cancer Res. 55:4972-4979.

Sequence | sensitize tumor infiltrating lymphocytes and interferon-γ release
FLDQVAFXV | shown to sensitize
FLFSWYAXV | shown to sensitize

From patent publication US20040014697A1, “Melanoma antigenic peptides” (priority 1998, published 2004)
